Where no end group is shown, it is not given here.
Legend:
[1] = biological target: T1, E. coli TF (trigger factor), full-length (Escherichia coli, UniProt P0A850); assay: Fluorescence polarization analysis of TF binding to FITC-labeled peptides; details: N-terminally FITC-labeled peptide 1 µM, full-length TF 0.1-1000 µM, 20 mM Tris pH 7.4, 100 mM NaCl, ex 485 nm / em 535 nm, one-site binding model, errors from three technical replicates
T1 construct: His6 (N); made in house
T1 sequence (P0A850 1-432): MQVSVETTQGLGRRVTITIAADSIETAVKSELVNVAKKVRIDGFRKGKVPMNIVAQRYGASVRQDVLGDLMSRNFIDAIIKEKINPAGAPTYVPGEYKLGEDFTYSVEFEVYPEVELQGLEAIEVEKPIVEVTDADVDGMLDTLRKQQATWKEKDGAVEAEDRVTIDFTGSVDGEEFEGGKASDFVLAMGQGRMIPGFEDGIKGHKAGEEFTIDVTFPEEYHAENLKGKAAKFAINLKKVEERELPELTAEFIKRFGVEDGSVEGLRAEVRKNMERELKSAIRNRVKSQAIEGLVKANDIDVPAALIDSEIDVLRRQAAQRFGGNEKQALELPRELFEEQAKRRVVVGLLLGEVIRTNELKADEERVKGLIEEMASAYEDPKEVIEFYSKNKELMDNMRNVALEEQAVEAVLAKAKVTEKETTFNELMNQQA
Method: A fraction of all these peptides were subsequently labeled with FITC at the N-terminus for fluorescence polarization (FP) measurements. […] For FP analysis, FITC-labeled peptides were dissolved in DMSO to yield a stock solution of 4 M. They were subsequently diluted by 20 mM Tris (pH 7.4) and 100 mM NaCl to yield a molar concentration of 100 µM . 200 µL of TF variants was transferred into a 96-well plate followed by serial dilution by the same buffer in a 1:1 dilution ratio. The final protein concentrations were between 0.1 and 1000 µM . After serial dilution, 50 µL of protein solutions of various protein concentrations was transferred to new wells by an eight-channel pipette and was mixed with FITC-labeled peptide solution to yield a peptide concentration of 1 µM . FP measurements of these samples were carried out using a plate reader (Paradigm, Molecular Device, USA) with an excitation wavelength of 485 nm and an emission wavelength of 535 nm. The integration time was set to 250 ms.

[2] = biological target: FITC-labeled IcdH1 peptide (ICDH 55-70); assay: fluorescence polarisation; FITC-labeled peptide at 1 µM, TF serially diluted (0.1-1000 µM); 20 mM Tris pH 7.4, 100 mM NaCl; one-site binding model; apparent constants
[3] = biological target: FITC-labeled IcdH2 peptide (ICDH 125-137); assay: as above
[4] = biological target: FITC-labeled IcdH3 peptide (ICDH 177-194); assay: as above

Row | Kd [2] [µM] | Kd [3] [µM] | Kd [4] [µM] | Substance | Kd [1] [µM]
1 | – | – | – | KAYKGERKISWMEIYT [IcdH1] | 28.2 ± 1
2 | – | – | – | KFLREEMGVKKIRFPEHC [IcdH3] | 132 ± 9
3 | – | – | – | YICLRPVRYYQGT [IcdH2] | 8.6 ± 0.3
4 | 28.2 | 8.6 | 132 | E. coli trigger factor (TF), full length (from UniProt P0A850 1-432) (natural protein) | –

From paper PMC10539794, “Structural polymorphism and substrate promiscuity of a ribosome-associated molecular chaperone” (Magnetic resonance, 2021)
